In US7230029B2, “Fatty acid analogues for the treatment of proliferative skin disorders” (Thia Medica AS, priority 2000, dated 2007):

Columns and labels:
[1] = system: CD36/FAT; test: CD36/FAT mRNA expression in NHK treated with PPAR activators and TTA; type: cell-based, human; conditions: NHK treated over a period of three days
Experimental: (§1) Normal adult human epidermal keratinocytes were isolated from human skin obtained after plastic surgery. First passage keratinocytes were grown in serum-free KGM (GIBCO BRL/Life Technologies, Inc.) and replated in 75 cm^2 culture flask or in 96-well microtiterplates preheated at 37° C. at a density of 3500 cells/well. Cells were incubated in a humidified atmosphere of 5% CO2 at 37° C. When cells reached 40% confluence they were treated with growth medium containing selective PPAR ligands (either alone or in combinations as indicated), tetradecylthioacetic acid (TTA) or 1,2 mM Ca^2+. Wy14643 was obtained from Calbiochem, BRL49653 was kindly provided by J. Fleckner, Novo Nordisk), L165041 was kindly provided by D. E. Moller (Merck Research Laboratories, Rahway, N.J.). TTA was manufactured in accordance with example 1. Medium was changed every day. For differentiation, keratinocytes at 40% confluence (day 0) were treated with 1,2 mM CaCl2. Medium was changed every other day. HaCaT cells were obtained from L. Aarenstrup (Danish Cancer Society, Denmark). HaCaT cells were cultured in Dulbecco's modified Eagle's Medium (DMEM) with 10% fetal calf serum (FCS) and antibiotics (100 u/ml penicillin, 1 mg/ml streptomycin sulphate) in a humidified atmosphere of 5% CO2 at 37° C. Medium was changed every other day.
(§2) To evaluate how TTA and the various PPAR activators affected expression of a known PPAR responsive gene and differentiation of keratinocytes, we first measured the mRNA levels of CD36/FAT and the two differentiation markers, Inv and Tg-1 in NHK treated with PPAR selective activators and TTA over a period of three days (FIG. 1a).

[2] = system: NHK cells; test: Viability/proliferation by modified MTT assay; type: cell-based, human
Experimental: as §1, with “HaCaT cells were obtained from L. Aarenstrup (Danish Cancer Society, Denmark). HaCaT cells were cultured in Dulbecco's modified Eagle's Medium (DMEM) with 10% fetal calf serum (FCS) and antibiotics (100 u/ml penicillin, 1 mg/ml streptomycin sulphate) in a humidified atmosphere of 5% CO2 at 37° C. Medium was changed every other day.” left out
Viability/proliferation was measured by a modification of the MTT assay introduced by Mosmann T (J Immunol Methods 65:55–63, 1983). […] The amount of formazan was quantified in an ELISA-reader at 540 nm. […]
(§3) Differentiation of keratinocytes is correlated with an increase in cell size. […] In parallel the expression of Tg-1 was monitored using an ELISA-based assay (FIG. 3b).

[3] = system: transglutaminase type 1 (Tg-1); test: Tg-1 expression by ELISA; type: cell-based, human; conditions: normalized to cell number
Experimental: as §1, with “HaCaT cells were obtained from L. Aarenstrup (Danish Cancer Society, Denmark). HaCaT cells were cultured in Dulbecco's modified Eagle's Medium (DMEM) with 10% fetal calf serum (FCS) and antibiotics (100 u/ml penicillin, 1 mg/ml streptomycin sulphate) in a humidified atmosphere of 5% CO2 at 37° C. Medium was changed every other day.” left out
Cells were subjected to two freeze-thaw cycles and transglutaminase type 1 (Tg-1) was determined by ELISA. […] The amount of transglutaminase was measured by quantifying the OPD reaction with an ELISA-reader at 490 nm and subtracting background at 650 nm. […]
as §3

[4] = system: Inv; test: Inv expression by indirect immunofluorescence microscopy; type: cell-based, human
Text: (§4) In addition, expression of Inv and Tg-1 was examined by indirect immunofluorescence microscopy (FIG. 3).

[5] = system: Tg-1; test: Tg-1 expression by indirect immunofluorescence microscopy; type: cell-based, human
Text: as §4

[6] = system: Inv; test: Inv mRNA expression in NHK (RT-PCR); type: cell-based, human; conditions: NHK treated over a period of three days
Experimental: as §1, with “HaCaT cells were cultured in Dulbecco's modified Eagle's Medium (DMEM) with 10% fetal calf serum (FCS) and antibiotics (100 u/ml penicillin, 1 mg/ml streptomycin sulphate) in a humidified atmosphere of 5% CO2 at 37° C. Medium was changed every other day.” left out
as §2

[7] = system: Inv; test: Inv protein expression in NHK by Western blotting; type: cell-based, human
Experimental: as §1

[8] = system: human keratinocytes; test: Keratinocyte differentiation marker gene expression (summary statements); type: cell-based
Experimental: In the present study we have in detail analyzed the expression of the PPARs during ex vivo differentiation of human keratinocytes, in isolated basal and suprabasal cells, and in sections of human skin. […] All three PPAR subtype selective ligands either alone or in combination only modestly effected keratinocyte proliferation.
as §1, with “HaCaT cells were cultured in Dulbecco's modified Eagle's Medium (DMEM) with 10% fetal calf serum (FCS) and antibiotics (100 u/ml penicillin, 1 mg/ml streptomycin sulphate) in a humidified atmosphere of 5% CO2 at 37° C. Medium was changed every other day.” left out

| SMILES | expression of CD36/FAT mRNA [1] | inhibition of NHK cell proliferation [2] | Tg-1 expression [3] | Inv expression [4] | Tg-1 expression [5] | Inv mRNA expression [6] | Inv protein expression [7] | keratinocyte differentiation marker gene expression [8] |
| --- | --- | --- | --- | --- | --- | --- | --- | --- |
| [Ca+2].[Cl-].[Cl-] [CaCl2] | did not induce expression of CD36/FAT | only marginal | significantly induced Tg-1 expression | comparable levels of expression | comparable levels of expression | – | – | – |
| CCCc1c(OCCCOc2ccc(OCC(=O)O)cc2)ccc(C(C)=O)c1O [L165041] | induced a significant dose-dependent expression of CD36 | – | – | in a dose-dependent manner induced Inv expression | – | dose-dependent induction of Inv mRNA expression | dose-dependent induction of Inv protein | induced in a dose-dependent manner expression of involucrin |
| Cc1cccc(Nc2cc(Cl)nc(SCC(=O)O)n2)c1C [Wy14643] | induced expression of CD36/FAT | – | – | – | – | modest induction of Inv mRNA expression | – | – |
